From the OligoGym collection
HELM strings list units from the 5' end as sugar, base in round brackets, then linkage (d deoxyribose, r ribose, m 2'-O-methyl, p phosphodiester). Strings are as the collection lists them; they lack the last nucleoside at the 3' end of the tested compound. [moe] = 2'-O-(2-methoxyethyl) (MOE); [sp] = phosphorothioate linkage; [m5C] = 5-methylcytosine

The substances below were run against SCN2A (assay: mouse, dose not given). Settings: ASO.
In the case of “RNA1{[moe](T)[sp].[moe](T)p.[moe]([m5C])p.[moe](T)p.d(G)[sp].d([m5C])[sp].d(A)[sp].d(T)[sp].d(G)[sp].d(T)[sp].d(A)[sp].d(A)[sp].d([m5C])[sp].d([m5C])[sp].[moe](T)p.[moe](T)p.[moe](T)p.[moe](A)[sp].[moe](T)}$$$$ (last 3' nucleoside missing)”, the 3 h FOB score is reported as 1 score 0-7.
“RNA1{[moe]([m5C])[sp].[moe](A)p.[moe](T)p.[moe](G)p.d(T)[sp].d(A)[sp].d(A)[sp].d(T)[sp].d([m5C])[sp].d(A)[sp].d([m5C])[sp].d(T)[sp].d(T)[sp].d(T)[sp].[moe]([m5C])p.[moe](A)p.[moe](T)p.[moe]([m5C])[sp].[moe]([m5C])}$$$$ (last 3' nucleoside missing)” gave a 3 h FOB score of 0 score 0-7.
“RNA1{[moe](G)[sp].[moe](A)p.[moe]([m5C])p.[moe]([m5C])p.[moe](G)p.d(T)[sp].d([m5C])[sp].d(T)[sp].d([m5C])[sp].d(T)[sp].d(T)[sp].d(T)[sp].d([m5C])[sp].d(T)[sp].d(T)[sp].[moe](A)p.[moe](T)p.[moe](T)[sp].[moe](T)}$$$$ (last 3' nucleoside missing)” gave a 3 h FOB score of 0 score 0-7.
Substance “RNA1{[moe](G)[sp].[moe]([m5C])p.[moe]([m5C])p.[moe](T)p.[moe](A)p.d([m5C])[sp].d(T)[sp].d(T)[sp].d([m5C])[sp].d([m5C])[sp].d(T)[sp].d(T)[sp].d([m5C])[sp].d([m5C])[sp].d(A)[sp].[moe](A)p.[moe](G)p.[moe](G)[sp].[moe](A)}$$$$ (last 3' nucleoside missing)” has a 3 h FOB score of 0.33 score 0-7.
“RNA1{[moe]([m5C])[sp].[moe](A)p.[moe](G)p.[moe]([m5C])p.[moe](A)p.[moe](T)p.d(G)[sp].d(T)[sp].d(T)[sp].d(T)[sp].d(A)[sp].d(T)[sp].d([m5C])[sp].d(T)[sp].d(T)[sp].d(A)[sp].[moe](G)p.[moe](T)[sp].[moe](T)}$$$$ (last 3' nucleoside missing)” gave a 3 h FOB score of 0 score 0-7.
“RNA1{[moe](G)[sp].[moe](G)p.[moe](A)p.[moe](T)p.[moe](A)p.d(G)[sp].d(T)[sp].d(G)[sp].d([m5C])[sp].d(T)[sp].d([m5C])[sp].d([m5C])[sp].d(A)[sp].d(T)[sp].d(A)[sp].[moe](G)p.[moe]([m5C])p.[moe]([m5C])[sp].[moe](A)}$$$$ (last 3' nucleoside missing)” showed a 3 h FOB score of 2 score 0-7.
“RNA1{[moe]([m5C])[sp].[moe](A)p.[moe](T)p.[moe](G)p.[moe](T)[sp].d(A)[sp].d(A)[sp].d([m5C])[sp].d([m5C])[sp].d(T)[sp].d(T)[sp].d(T)[sp].d(A)[sp].[moe](T)p.[moe](A)p.[moe]([m5C])[sp].[moe](A)}$$$$ (last 3' nucleoside missing)” showed a 3 h FOB score of 0 score 0-7.
For “RNA1{[moe](T)[sp].[moe]([m5C])p.[moe](T)p.[moe](A)p.[moe](T)[sp].d(T)[sp].d(T)[sp].d(T)[sp].d(A)[sp].d(T)[sp].d(A)[sp].d(A)[sp].d(A)[sp].[moe](T)p.[moe](G)p.[moe]([m5C])[sp].[moe]([m5C])}$$$$ (last 3' nucleoside missing)”, the 3 h FOB score was 1.33 score 0-7.
Work on “RNA1{[moe]([m5C])[sp].[moe](T)p.[moe]([m5C])p.[moe](T)p.[moe](T)p.d(T)[sp].d([m5C])[sp].d(T)[sp].d(T)[sp].d(A)[sp].d(T)[sp].d(T)[sp].d(T)[sp].d([m5C])[sp].d(T)[sp].[moe](G)p.[moe](T)p.[moe](T)[sp].[moe](T)}$$$$ (last 3' nucleoside missing)” yielded a 3 h FOB score of 0 score 0-7.
“RNA1{[moe]([m5C])[sp].[moe](A)p.[moe](T)p.[moe](T)p.d(T)[sp].d([m5C])[sp].d(T)[sp].d(A)[sp].d(T)[sp].d(A)[sp].d(A)[sp].d([m5C])[sp].d(T)[sp].d([m5C])[sp].[moe](A)p.[moe](G)p.[moe]([m5C])p.[moe](A)[sp].[moe](A)}$$$$ (last 3' nucleoside missing)” gave a 3 h FOB score of 0 score 0-7.
Substance “RNA1{[moe]([m5C])[sp].[moe](A)p.[moe](T)p.[moe](G)[sp].d(T)[sp].d(A)[sp].d(A)[sp].d([m5C])[sp].d([m5C])[sp].d(T)[sp].d(T)[sp].d(T)[sp].[moe](A)p.[moe](T)p.[moe](A)p.[moe]([m5C])[sp].[moe](A)}$$$$ (last 3' nucleoside missing)” has a 3 h FOB score of 0 score 0-7.
Substance “RNA1{[moe](A)[sp].[moe](A)p.[moe](G)p.[moe](T)p.[moe](A)p.d(G)[sp].d(T)[sp].d(A)[sp].d([m5C])[sp].d([m5C])[sp].d(A)[sp].d(T)[sp].d(T)[sp].d([m5C])[sp].d([m5C])[sp].[moe]([m5C])p.[moe](A)p.[moe](T)[sp].[moe]([m5C])}$$$$ (last 3' nucleoside missing)” has a 3 h FOB score of 0 score 0-7.
With “RNA1{[moe](T)[sp].[moe]([m5C])p.[moe](T)p.[moe](A)[sp].d(T)[sp].d(T)[sp].d(T)[sp].d(T)[sp].d(A)[sp].d(T)[sp].d(A)[sp].d(A)[sp].[moe](A)p.[moe](T)p.[moe](G)p.[moe]([m5C])[sp].[moe]([m5C])}$$$$ (last 3' nucleoside missing)” the 3 h FOB score was 1 score 0-7.
Substance “RNA1{[moe](T)[sp].[moe](G)p.[moe](G)p.[moe](G)p.[moe](T)p.d([m5C])[sp].d(T)[sp].d([m5C])[sp].d(T)[sp].d(T)[sp].d(A)[sp].d(G)[sp].d([m5C])[sp].d(T)[sp].d(T)[sp].[moe](T)p.[moe]([m5C])p.[moe](T)[sp].[moe]([m5C])}$$$$ (last 3' nucleoside missing)” has a 3 h FOB score of 1.33 score 0-7.
“RNA1{[moe](A)[sp].[moe](T)p.[moe](T)p.[moe]([m5C])p.[moe](T)p.d(A)[sp].d(T)[sp].d(T)[sp].d(T)[sp].d(T)[sp].d(A)[sp].d(T)[sp].d(A)[sp].d(A)[sp].d(A)[sp].[moe](T)p.[moe](G)p.[moe]([m5C])[sp].[moe]([m5C])}$$$$ (last 3' nucleoside missing)” gave a 3 h FOB score of 1 score 0-7.
“RNA1{[moe](G)[sp].[moe](A)p.[moe]([m5C])p.[moe]([m5C])p.[moe](G)p.[moe](T)p.d([m5C])[sp].d(T)[sp].d([m5C])[sp].d(T)[sp].d(T)[sp].d(T)[sp].d([m5C])[sp].d(T)[sp].d(T)[sp].d(A)[sp].[moe](T)p.[moe](T)[sp].[moe](T)}$$$$ (last 3' nucleoside missing)” was tested, and the 3 h FOB score was 0 score 0-7.
Work on “RNA1{[moe](A)[sp].[moe](T)p.[moe](G)p.[moe]([m5C])p.d(A)[sp].d(T)[sp].d(A)[sp].d(A)[sp].d(T)[sp].d([m5C])[sp].d([m5C])[sp].d([m5C])[sp].d(A)[sp].d(T)[sp].[moe](T)p.[moe](A)p.[moe](T)p.[moe](A)[sp].[moe]([m5C])}$$$$ (last 3' nucleoside missing)” yielded a 3 h FOB score of 0 score 0-7.
With “RNA1{[moe](T)[sp].[moe]([m5C])p.[moe](T)p.[moe]([m5C])p.[moe](T)p.d(T)[sp].d(T)[sp].d([m5C])[sp].d(T)[sp].d(T)[sp].d(A)[sp].d(T)[sp].d(T)[sp].d(T)[sp].d([m5C])[sp].[moe](T)p.[moe](G)p.[moe](T)[sp].[moe](T)}$$$$ (last 3' nucleoside missing)” the 3 h FOB score was 0 score 0-7.
“RNA1{[moe](A)[sp].[moe](T)p.[moe](G)p.[moe](G)p.[moe](T)p.d(T)[sp].d(G)[sp].d(G)[sp].d(A)[sp].d(A)[sp].d(A)[sp].d(T)[sp].d(A)[sp].d([m5C])[sp].d(A)[sp].[moe](G)p.[moe]([m5C])p.[moe](T)[sp].[moe](G)}$$$$ (last 3' nucleoside missing)” showed a 3 h FOB score of 1 score 0-7.
“RNA1{[moe](A)[sp].[moe](T)p.[moe]([m5C])p.[moe](G)p.[moe](A)p.d(T)[sp].d(T)[sp].d([m5C])[sp].d([m5C])[sp].d(T)[sp].d(T)[sp].d(T)[sp].d([m5C])[sp].d(T)[sp].d(G)[sp].[moe]([m5C])p.[moe](A)p.[moe](T)[sp].[moe]([m5C])}$$$$ (last 3' nucleoside missing)” was tested, and the 3 h FOB score was 1 score 0-7.
Work on “RNA1{[moe]([m5C])[sp].[moe]([m5C])p.[moe](A)p.[moe]([m5C])p.[moe](G)p.d([m5C])[sp].d(T)[sp].d(T)[sp].d(A)[sp].d([m5C])[sp].d(A)[sp].d(T)[sp].d([m5C])[sp].d(A)[sp].d(A)[sp].[moe](A)p.[moe]([m5C])p.[moe](A)[sp].[moe](T)}$$$$ (last 3' nucleoside missing)” yielded a 3 h FOB score of 0 score 0-7.
“RNA1{[moe]([m5C])[sp].[moe](T)p.[moe](G)p.[moe](G)p.[moe]([m5C])p.d(T)[sp].d(A)[sp].d(T)[sp].d(A)[sp].d([m5C])[sp].d(T)[sp].d([m5C])[sp].d(A)[sp].d(T)[sp].d(T)[sp].[moe](G)p.[moe]([m5C])p.[moe](T)[sp].[moe]([m5C])}$$$$ (last 3' nucleoside missing)” gave a 3 h FOB score of 0.67 score 0-7.
Work on “RNA1{[moe]([m5C])[sp].[moe]([m5C])p.[moe](G)p.[moe](A)p.[moe](A)p.[moe](T)p.d(T)[sp].d([m5C])[sp].d(T)[sp].d(A)[sp].d(T)[sp].d(T)[sp].d(T)[sp].d(T)[sp].d(A)[sp].d(T)[sp].[moe](A)p.[moe](A)[sp].[moe](A)}$$$$ (last 3' nucleoside missing)” yielded a 3 h FOB score of 0 score 0-7.
“RNA1{[moe](A)[sp].[moe](A)p.[moe](T)p.[moe]([m5C])p.[moe](A)p.[moe]([m5C])p.d(T)[sp].d(T)[sp].d(T)[sp].d([m5C])[sp].d(A)[sp].d(T)[sp].d([m5C])[sp].d([m5C])[sp].d(A)[sp].d([m5C])[sp].[moe](G)p.[moe](A)[sp].[moe]([m5C])}$$$$ (last 3' nucleoside missing)” was tested, and the 3 h FOB score was 0 score 0-7.
For “RNA1{[moe](A)[sp].[moe](T)p.[moe](G)p.[moe](T)p.[moe](A)p.[moe](A)p.d(T)[sp].d([m5C])[sp].d(A)[sp].d([m5C])[sp].d(T)[sp].d(T)[sp].d(T)[sp].d([m5C])[sp].d(A)[sp].d(T)[sp].[moe]([m5C])p.[moe]([m5C])[sp].[moe](A)}$$$$ (last 3' nucleoside missing)”, the 3 h FOB score was 0 score 0-7.
“RNA1{[moe](G)[sp].[moe]([m5C])p.[moe](A)p.[moe](T)p.[moe](G)p.[moe](T)[sp].d(A)[sp].d(A)[sp].d([m5C])[sp].d([m5C])[sp].d(T)[sp].d(T)[sp].d(T)[sp].d(A)[sp].[moe](T)p.[moe](A)[sp].[moe]([m5C])}$$$$ (last 3' nucleoside missing)” showed a 3 h FOB score of 0.33 score 0-7.
